PMC10350927 (Journal of Medicinal Chemistry, 2023)
Changes are numbered by the printed parent chain.

Key:
[1] = target: T1, hmSUCNR1 (N18^1.31E, K269^7.32N, and G84^EL1W) (Mus musculus, UniProt Q99MT6, G84W/K269N/N18E); test: cAMP assay, inhibition of succinate response at hmSUCNR1; type: cell-based; settings: read-out: hmSUCNR1 cAMP pIC50 (converted)
T1 construct: mGlu5 glutamate receptor signal peptide (N); expressed in transfected cells; the methods describe Flp-In T-REx 293
T1 sequence (Q99MT6 1-317 N18E/G84W/K269N): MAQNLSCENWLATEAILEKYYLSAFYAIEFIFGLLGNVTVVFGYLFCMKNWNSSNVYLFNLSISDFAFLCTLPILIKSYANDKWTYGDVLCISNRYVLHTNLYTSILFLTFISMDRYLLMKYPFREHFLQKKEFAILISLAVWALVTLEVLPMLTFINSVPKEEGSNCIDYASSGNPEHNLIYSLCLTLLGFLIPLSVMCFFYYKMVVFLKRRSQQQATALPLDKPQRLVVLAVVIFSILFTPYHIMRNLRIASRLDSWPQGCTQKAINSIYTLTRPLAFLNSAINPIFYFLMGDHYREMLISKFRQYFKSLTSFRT

[2] = target: T2, mSUCNR1-N18^1.31E/K269^7.32N (Mus musculus, UniProt Q99MT6, K269N/N18E); test: G protein activation BRET assay, mSUCNR1-N18E/K269N; type: cell-based; settings: against an EC80 concentration of succinate
T2 construct: expressed in transfected cells; host or cells: HEK-293T
T2 sequence (Q99MT6 1-317 N18E/K269N): T1 sequence (Q99MT6 1-317 N18E/G84W/K269N) with W84G
Description: G protein activation assays were carried out using the open-source TRUPATH platform previously described.[36]

[3] = target: T3, mSUCNR1 construct containing N18^1.31E, K269^7.32N, and G84^EL1W (Mus musculus, UniProt Q99MT6, G84W/K269N/N18E); test: G protein activation BRET assay, mSUCNR1-N18E/G84W/K269N; type: cell-based
T3 construct: expressed in transfected cells; host or cells: HEK-293T
T3 sequence (Q99MT6 1-317 N18E/G84W/K269N): T1 sequence (Q99MT6 1-317 N18E/G84W/K269N)
Description: G protein activation assays were carried out using the open-source TRUPATH platform previously described.[36] HEK-293T cells were transfected with Gαi1-Rluc8, Gγ8-GFP^2, Gβ3 and either human, mouse, mouse-N18E/K269N, or mouse-N18E/G84W/K269N SUCNR1 in a 1:1:1:1 plasmid mass ratio using polyethyleneimine.

hSUCNR1 [4] = target: T4, hSUCNR1 (Homo sapiens, UniProt Q9BXA5); test: BRET competition binding using 22 as tracer, hSUCNR1; settings: 3 μM 22, Kd = 990 nM; mean ± SEM, three experiments
T4 sequence (Q9BXA5 1-334): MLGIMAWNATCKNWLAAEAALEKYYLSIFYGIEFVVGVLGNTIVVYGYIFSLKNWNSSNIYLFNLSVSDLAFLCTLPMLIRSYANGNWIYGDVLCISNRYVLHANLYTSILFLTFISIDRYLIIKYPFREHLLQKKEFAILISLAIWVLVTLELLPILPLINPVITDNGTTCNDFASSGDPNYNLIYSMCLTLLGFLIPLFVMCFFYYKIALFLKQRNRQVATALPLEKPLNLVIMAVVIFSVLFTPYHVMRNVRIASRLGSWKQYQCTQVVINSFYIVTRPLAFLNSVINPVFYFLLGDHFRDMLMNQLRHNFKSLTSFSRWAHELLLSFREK

mSUCNR1 [5] = target: T5, mSUCNR1 (Mus musculus, UniProt Q99MT6); test: BRET competition binding using 22 as tracer, mSUCNR1; settings: 1 μM 22, Kd = […]; highest unlabeled ligand 30 μΜ
T5 sequence (Q99MT6 1-317): T1 sequence (Q99MT6 1-317 N18E/G84W/K269N) with E18N, W84G, N269K

hSUCNR1 [6] = target: T4, hSUCNR1; test: BRET competition binding using 46 as tracer, hSUCNR1; settings: […] 46, Kd = 310 nM
hmSUCNR1 [7] = target: T6, hmSUCNR1 (Mus musculus, UniProt Q99MT6, G84W/K269N/N18E); test: BRET competition binding using 22 as tracer, hmSUCNR1
T6 sequence (Q99MT6 1-317 N18E/G84W/K269N): T1 sequence (Q99MT6 1-317 N18E/G84W/K269N)

hmSUCNR1 [8] = target: T6, hmSUCNR1; test: BRET competition binding using 46 as tracer, hmSUCNR1
hSUCNR1 [9] = target: T4, hSUCNR1; test: cAMP assay, inhibition of succinate response at hSUCNR1; type: cell-based; set-up: expressed in transfected cells; host or cells: Flp-In T-REx 293; settings: inhibition of […] succinate response; mean ± SEM
mSUCNR1 [10] = target: T5, mSUCNR1; settings: transiently transfected HEK-293T cells
Nluc-mSUCNR1 = target: T7, Nluc-mSUCNR1 (Mus musculus, UniProt Q99MT6); test: cAMP assay, agonist potency at Nluc-mSUCNR1; settings: N-terminally Nluc-tagged receptor
T7 sequence (Q99MT6 1-317): T1 sequence (Q99MT6 1-317 N18E/G84W/K269N) with E18N, W84G, N269K

hSUCNR1 [11] = target: T4, hSUCNR1; test: cAMP assay, agonist potency at hSUCNR1; type: cell-based; set-up: expressed in transfected cells; host or cells: Flp-In T-REx 293; settings: Flp-In T-REx 293 cells, mean ± SEM, minimum three independent experiments
mSUCNR1 [12] = target: T5, mSUCNR1; test: cAMP assay, agonist potency at mSUCNR1; type: cell-based; set-up: expressed in transfected cells; host or cells: Flp-In T-REx 293; settings: Flp-In T-REx 293 cells; for cAMP mSUCNR1 pEC50: mean ± SEM, minimum three independent experiments

IC50 [1] [µM]	antagonism against mSUCNR1-N18^1.31E/K269^7.32N [2]	Competion binding using 22 hSUCNR1 pKi (hSUCNR1 [4])	Competion binding using 22 mSUCNR1 pKi (mSUCNR1 [5])	Competion binding using 46 hSUCNR1 pKi (hSUCNR1 [6])	Ki (hmSUCNR1 [7]) [µM]	Ki (hmSUCNR1 [8]) [µM]	cAMP hSUCNR1 pIC50 (hSUCNR1 [9])	G protein activation pEC50 at mSUCNR1 N18^1.31E, K269^7.32N, G84^EL1W ([3]; transiently transfected HEK-293T cells)	G protein activation pEC50 at mSUCNR1 (mSUCNR1 [10])	Nluc-mSUCNR1 cAMP pEC50 (Nluc-mSUCNR1)	cAMP hSUCNR1 pEC50 (hSUCNR1 [11])	EC50 (hSUCNR1 [11]; read-out: cAMP hSUCNR1 pEC50 (converted)) [µM]	Emax (mSUCNR1 [12]) [%]	cAMP mSUCNR1 pEC50 (mSUCNR1 [12])	cAMP mSUCNR1 pEC50 (mSUCNR1 [12]; listed as succinate)	SMILES	antagonism at mSUCNR1 N18^1.31E, K269^7.32N, G84^EL1W mutant ([3]; against an EC80 concentration of succinate)
0.0794	no measurable antagonism	7.4 ± 0.1	5.1 ± 0.0	7.1 ± 0.1	0.0501	0.0631	7.07 ± 0.21									CN1CCN(Cc2ccc(-c3cccc(C(=O)Nc4ccccc4CC(=O)O)c3)cc2)CC1 [Compound 1, 4-((3′-((2-(Carboxymethyl)phenyl)carbamoyl)-[1,1′-biphenyl]-4-yl)methyl)-1-methylpiperazin-1-ium 2,2,2-trifluoroacetate]	a level of antagonism similar to that with hSUCNR1
		3.7 ± 0.1	3.3 ± 0.1	3.2 ± 0.1	1000	631		4.28 ± 0.09	5.29 ± 0.12	5.69 ± 0.11	5.04 ± 0.02	~10	100	5.02 ± 0.10	~5.0	O=C(O)CCC(=O)O [Succinate]	
